Columns and labels:
mouse [1] = settings: Sub-acute repeat dose toxicity, other, Oral, Feed, dose end: 4 week, group: systemic
rat [2] = settings: Subchronic oral toxicity in rodents, sprague dawley, Feed, dose end: 90 day, group: systemic
mouse [3] = settings: Carcinogenicity; b6c3f1; Oral; Feed; dose end: 104 week; group: systemic; systemic / pathology microscopic / liver / cellular alteration + systemic / pathology microscopic / liver / fatty change + systemic / …
rat [4] = settings: Prenatal developmental toxicity study, sprague dawley, Oral, Gavage/Intubation, dose end: 16 GD
mouse [5] = settings: Subchronic oral toxicity in rodents, other, Feed, dose end: 13 week, group: systemic
rat [6] = settings: Subchronic oral toxicity in rodents, sprague dawley, Feed, dose end: 13 week, group: systemic
dog [7] = settings: Chronic toxicity; beagle; Oral; Feed; dose end: 52 week; group: systemic; systemic / organ weight / liver / absolute + systemic / organ weight / liver / relative to body weight + systemic / pathology gross / liver…
rabbit [8] = settings: Prenatal developmental toxicity study, new zealand white, Oral, Gavage/Intubation, dose end: 18 GD
rat [9] = settings: Multigenerational reproductive toxicity study, sprague dawley, Oral, Feed, dose end: 2 generation
rat [10] = settings: Combined chronic toxicity/carcinogenicity, sprague dawley, Oral, Feed, dose end: 104 week
dog [11] = settings: Subchronic oral toxicity in nonrodent, beagle, Feed, dose end: 13 week, group: systemic, systemic / clinical chemistry / alanine aminotransferase (alt/sgpt) / alanine aminotransferase (alt/sgpt) + systemic / clinical chemistry / …
mouse [12] = settings: Carcinogenicity; cd1; Oral; Feed; dose end: 18 month; group: systemic; systemic / organ weight / liver / absolute + systemic / organ weight / liver / relative to body weight + systemic / pathology microscopic / …
rat [13] = settings: Combined chronic toxicity/carcinogenicity; other; Oral; Feed; dose end: 22 month; group: systemic; systemic / hematology / erythrocyte (rbc) count differential / erythrocyte (rbc) + systemic / hematology / hematocrit (hct) / hematocrit (…
rat [14] = settings: Subchronic oral toxicity in rodents, sprague dawley, Feed, dose end: 90 day, group: systemic, systemic / hematology / erythrocyte (rbc) count differential / erythrocyte (rbc) + systemic / hematology / hematocrit (hct) / hematocrit (…
rabbit [15] = settings: Prenatal developmental toxicity study, new zealand white, Oral, Gavage/Intubation, dose end: 19 GD
rat [16] = settings: Subchronic oral toxicity in rodents, sprague dawley, Feed, dose end: 90 day, group: systemic; remark: listed apart in the source
dog [17] = settings: Chronic toxicity, beagle, Oral, Feed, dose end: 52 week, group: systemic
[18] = systemic / organ weight / liver / absolute + systemic / organ weight / liver / relative to body weight + systemic / pathology microscopic / …
[19] = systemic / pathology microscopic / liver / hypertrophy
[20] = group: developmental, developmental / developmental malformation / bone / cervical + systemic / in life observation / body weight / fetal weight
[21] = group: developmental, developmental / developmental malformation / bone / cervical + systemic / in life observation / body weight / fetal weight + developmental…
[22] = group: maternal, systemic / in life observation / body weight / body weight gain + systemic / in life observation / food consumption / food consumption + …
[23] = systemic / in life observation / body weight / body weight + systemic / in life observation / body weight / body weight gain + systemic / in…
[24] = systemic / organ weight / liver / absolute
[25] = systemic / organ weight / liver / absolute + systemic / organ weight / kidney / absolute + systemic / organ weight / kidney / relative to …
[26] = group: developmental, developmental / developmental malformation / bone / full supernumerary
[27] = group: developmental, developmental / developmental malformation / bone / full supernumerary + systemic / in life observation / body weight / fetal weight
[28] = group: offspring, developmental / developmental malformation / trunk / [other] + developmental / developmental malformation / ureter / hydroureter + systemic…
[29] = group: parental, systemic / in life observation / body weight / body weight + systemic / organ weight / pituitary gland / relative to body weight + systemic…
[30] = group: parental, systemic / organ weight / pituitary gland / relative to body weight + systemic / in life observation / water consumption / water consumption…
[31] = group: cholinesterase, cholinesterase / cholinesterase / cholinesterase / erythrocyte cholinesterase (che) + cholinesterase / cholinesterase / cholinesterase / …
[32] = group: systemic, systemic / pathology microscopic / liver / eosinophilic focus
[33] = group: systemic, systemic / pathology microscopic / liver / eosinophilic focus + systemic / pathology microscopic / liver / hypertrophy
[34] = group: developmental, systemic / in life observation / body weight / fetal weight
[35] = group: maternal, reproductive / reproductive performance / aborted / aborted + systemic / in life observation / clinical signs / body surface staining + …
[36] = systemic / clinical chemistry / aspartate aminotransferase (ast/sgot) / aspartate aminotransferase (ast/sgot)
[37] = systemic / in life observation / body weight / body weight + systemic / in life observation / body weight / body weight gain + systemic / …

CCCOCC(=Nc1ccc(Cl)cc1C(F)(F)F)n1ccnc1 [Triflumizole]
LOAEL (mouse [1]; [18]): 397 mg/kg/day
NEL (mouse [1]; [18]): 3.8 mg/kg/day
NOAEL (mouse [1]; [18]): 40.3 mg/kg/day
LEL (mouse [1]; systemic / organ weight / liver / relative to body weight + systemic / urinalysis / glucose / glucose): 40.3 mg/kg/day
LEL (rat [2]; [19]): 4.1 mg/kg/day
NEL (rat [2]; [19]): < 4.1 mg/kg/day
LOAEL (rat [2]; systemic / pathology microscopic / liver / hypertrophy + systemic / pathology microscopic / liver / vacuolization): 40.9 mg/kg/day
NOAEL (rat [2]; systemic / pathology microscopic / liver / hypertrophy + systemic / pathology microscopic / liver / vacuolization + systemic / hematology / …): 4.1 mg/kg/day
LEL (mouse [3]): 67.4 mg/kg/day
LOAEL (mouse [3]): 67.4 mg/kg/day
NEL (mouse [3]): 16.2 mg/kg/day
NOAEL (mouse [3]): 16.2 mg/kg/day
LEL (rat [4]; [20]): 35 mg/kg/day
LOAEL (rat [4]; [20]): 35 mg/kg/day
NEL (rat [4]; [21]): 10 mg/kg/day
NOAEL (rat [4]; [21]): 10 mg/kg/day
LEL (rat [4]; [22]): 35 mg/kg/day
LOAEL (rat [4]; [22]): 35 mg/kg/day
NEL (rat [4]; [22]): 10 mg/kg/day
NOAEL (rat [4]; [22]): 10 mg/kg/day
LOAEL (mouse [5]; systemic / in life observation / body weight / body weight + systemic / in life observation / body weight / body weight gain): 381 mg/kg/day
LEL (mouse [5]; [23]): 381 mg/kg/day
NEL (mouse [5]; [23]): 33.1 mg/kg/day
NOAEL (mouse [5]; [23]): 33.1 mg/kg/day
LEL (rat [6]; [24]): 1.4 mg/kg/day
NEL (rat [6]; [24]): < 1.4 mg/kg/day
LOAEL (rat [6]; [25]): 176 mg/kg/day
NOAEL (rat [6]; [25]): 15.3 mg/kg/day
LEL (dog [7]): 34.1 mg/kg/day
LOAEL (dog [7]): 34.1 mg/kg/day
NEL (dog [7]): 10 mg/kg/day
NOAEL (dog [7]): 10 mg/kg/day
LEL (rabbit [8]; [26]): 100 mg/kg/day
LOAEL (rabbit [8]; [26]): 100 mg/kg/day
NEL (rabbit [8]; [27]): 50 mg/kg/day
NOAEL (rabbit [8]; [27]): 50 mg/kg/day
LEL (rabbit [8]; [22]): 100 mg/kg/day
LOAEL (rabbit [8]; [22]): 100 mg/kg/day
NEL (rabbit [8]; [22]): 50 mg/kg/day
NOAEL (rabbit [8]; [22]): 50 mg/kg/day
LOAEL (rat [9]; group: offspring, developmental / developmental malformation / trunk / [other] + developmental / developmental malformation / ureter / hydroureter): 8.5 mg/kg/day
LEL (rat [9]; [28]): 8.5 mg/kg/day
NEL (rat [9]; [28]): 3.5 mg/kg/day
NOAEL (rat [9]; [28]): 3.5 mg/kg/day
LOAEL (rat [9]; [29]): > 8.5 mg/kg/day
NOAEL (rat [9]; [29]): ≥ 8.5 mg/kg/day
LEL (rat [9]; [30]): 1.5 mg/kg/day
NEL (rat [9]; [30]): < 1.5 mg/kg/day
NOAEL (rat [9]; group: reproductive, reproductive / reproductive performance / gestational length / gestational length): 3.5 mg/kg/day
LOAEL (rat [9]; group: reproductive, reproductive / reproductive performance / gestational length / gestational length + reproductive / offspring survival early / litter size / …): 8.5 mg/kg/day
NEL (rat [9]; group: reproductive, reproductive / reproductive performance / gestational length / gestational length + reproductive / reproductive performance / mating / …): 1.5 mg/kg/day
LEL (rat [9]; group: reproductive, reproductive / reproductive performance / mating / mating): 3.5 mg/kg/day
LEL (rat [10]; [31]): 14.4 mg/kg/day
LOAEL (rat [10]; [31]): > 59.4 mg/kg/day
NEL (rat [10]; [31]): 3.5 mg/kg/day
NOAEL (rat [10]; [31]): ≥ 59.4 mg/kg/day
LOAEL (rat [10]; [32]): 3.5 mg/kg/day
NOAEL (rat [10]; [32]): < 3.5 mg/kg/day
LEL (rat [10]; [33]): 3.5 mg/kg/day
NEL (rat [10]; [33]): < 3.5 mg/kg/day

COC(=O)c1cccc(C)c1S(=O)(=O)NC(=O)Nc1nc(OCC(F)(F)F)nc(N(C)C)n1 [Triflusulfuron-methyl]
LEL (dog [11]): 147 mg/kg/day
LOAEL (dog [11]): 147 mg/kg/day
NEL (dog [11]): 3.9 mg/kg/day
NOAEL (dog [11]): 3.9 mg/kg/day
LEL (mouse [12]): 349 mg/kg/day
LOAEL (mouse [12]): 349 mg/kg/day
NEL (mouse [12]): 20.9 mg/kg/day
NOAEL (mouse [12]): 20.9 mg/kg/day
LEL (rat [13]): 30.6 mg/kg/day
LOAEL (rat [13]): 30.6 mg/kg/day
NEL (rat [13]): 4.06 mg/kg/day
NOAEL (rat [13]): 4.06 mg/kg/day
LEL (rat [14]): 127 mg/kg/day
LOAEL (rat [14]): 127 mg/kg/day
NEL (rat [14]): 6.2 mg/kg/day
NOAEL (rat [14]): 6.2 mg/kg/day
LEL (rabbit [15]; [34]): 270 mg/kg/day
LOAEL (rabbit [15]; [34]): 270 mg/kg/day
NEL (rabbit [15]; [34]): 90 mg/kg/day
NOAEL (rabbit [15]; [34]): 90 mg/kg/day
LEL (rabbit [15]; [35]): 270 mg/kg/day
LOAEL (rabbit [15]; [35]): 270 mg/kg/day
NEL (rabbit [15]; [35]): 90 mg/kg/day
NOAEL (rabbit [15]; [35]): 90 mg/kg/day
LEL (rat [16]; [36]): 7.71 mg/kg/day
NEL (rat [16]; [36]): < 7.71 mg/kg/day
LOAEL (rat [16]; systemic / in life observation / body weight / body weight gain + systemic / in life observation / food consumption / food efficiency): 133 mg/kg/day
NOAEL (rat [16]; systemic / in life observation / body weight / body weight gain + systemic / in life observation / food consumption / food efficiency + …): 6.56 mg/kg/day
LEL (dog [17]; [37]): 26.9 mg/kg/day
NEL (dog [17]; [37]): 1 mg/kg/day
LOAEL (dog [17]; systemic / organ weight / liver / relative to body weight + systemic / pathology microscopic / liver / hypertrophy): 95.5 mg/kg/day
NOAEL (dog [17]; systemic / organ weight / liver / relative to body weight + systemic / pathology microscopic / liver / hypertrophy + systemic / clinical …): 27.7 mg/kg/day

— EPA's ToxRefDB 2
